How the values were obtained:
[1] = system: SW480 colorectal cancer cells carrying L2185A mutant mTOR alleles; assay: SRB growth assay of SW480 cells carrying L2185A mutant mTOR; format: cell-based, human; conditions: various concentrations, 2 day
Protocol: (FIG. 5A) SW480 cells carrying homozygous WT mTOR or L2185A mutant alleles were treated with various concentrations of AZD8055, INK-128, OSI-027 and PP242 for 2 day. Growth of SW480 cells was measured by SRB assay. Data represent means±SD in three independent experiments. (FIG. 5B) SW480 cells carrying homozygous WT and L2185A mutant mTOR allele were treated with a single dose of AZD8055 (100 nM), INK-128 (100 nM), OSI-027 (6,000 nM), and PP242 (2,000 nM) for different times. Cell growth was measured by SRB assay. The drug carrier DMSO was used as a control. Data represent means±SD in three independent experiments. (FIG. 5C) SW480 cells carrying homozygous WT and L2185A mutant mTOR were treated with various concentrations of INK-128, OSI-027, AZD8055 and PP242 for 1 hr. The effect on the level of P-S6K, S6K, P-4E-BP1, 4EB-P1, P-AKT and AKT was analyzed by immunoblot. […] The growth of SW480 cells was measured by SRB assay. Data represent means±SD in three independent experiments.
Cancer cell lines were maintained in DMEM or RPMI 1640, supplemented with 10% fetal bovine serum (Invitrogen) and 1% penicillin/streptomycin (Invitrogen). CRISPR/cas9 technology was used to engineer mutant mTOR allele in SW480 colorectal and H460 lung cancer cells. Briefly, The target sequence for mTOR, […] (SEQ ID NO: 3 was designed through the online tool at crispr.mit.edu, and cloned into pSPCas9(BB)-2A-GFP vector (PX458 in Addgene). Genomic mTOR mutation was engineered using a protocol as described (Ran, et al. (2013). Nature protocols 8, 2281-2308) and was confirmed by targeted sequencing.
Antibodies against tubulin, S6K, phospho-S6K (Thr389), 4E-BP1, phospho-4E-BP1 (Thr37/46), Akt, phospho-Akt (Thr308), and phospho-Akt (Ser473) were purchased from Cell Signaling Technology. […] For drug sensitivity test, cancer cells were seeded in 96-well plates at a density of 2,000 cells per well. 24 hours later, different concentrations of mTOR inhibitors were added in quadruplicate. Cell growth was measured by the sulforhodamine B (SRB) assay as previously described (Vichai, V., and Kirtikara, K. (2006). Nature protocols 1, 1112-1116).

[2] = target: T1, tor2-dg cells expressing TOR2-mTOR fusion (UniProt P32600+P42345); format: cell-based, S. cerevisiae; conditions: 10-fold serial dilutions on plates containing drug
T1 construct: fused in frame with mTOR kinase domain (2140-2549 aa); yeast TOR2 N-terminus (1-2080 aa); expressed in transfected cells; host or cells: S. cerevisiae W303 tor2-dg, centromeric plasmid derived from pML40-TOR2
T1 sequence (P32600+P42345 fused with the stated changes): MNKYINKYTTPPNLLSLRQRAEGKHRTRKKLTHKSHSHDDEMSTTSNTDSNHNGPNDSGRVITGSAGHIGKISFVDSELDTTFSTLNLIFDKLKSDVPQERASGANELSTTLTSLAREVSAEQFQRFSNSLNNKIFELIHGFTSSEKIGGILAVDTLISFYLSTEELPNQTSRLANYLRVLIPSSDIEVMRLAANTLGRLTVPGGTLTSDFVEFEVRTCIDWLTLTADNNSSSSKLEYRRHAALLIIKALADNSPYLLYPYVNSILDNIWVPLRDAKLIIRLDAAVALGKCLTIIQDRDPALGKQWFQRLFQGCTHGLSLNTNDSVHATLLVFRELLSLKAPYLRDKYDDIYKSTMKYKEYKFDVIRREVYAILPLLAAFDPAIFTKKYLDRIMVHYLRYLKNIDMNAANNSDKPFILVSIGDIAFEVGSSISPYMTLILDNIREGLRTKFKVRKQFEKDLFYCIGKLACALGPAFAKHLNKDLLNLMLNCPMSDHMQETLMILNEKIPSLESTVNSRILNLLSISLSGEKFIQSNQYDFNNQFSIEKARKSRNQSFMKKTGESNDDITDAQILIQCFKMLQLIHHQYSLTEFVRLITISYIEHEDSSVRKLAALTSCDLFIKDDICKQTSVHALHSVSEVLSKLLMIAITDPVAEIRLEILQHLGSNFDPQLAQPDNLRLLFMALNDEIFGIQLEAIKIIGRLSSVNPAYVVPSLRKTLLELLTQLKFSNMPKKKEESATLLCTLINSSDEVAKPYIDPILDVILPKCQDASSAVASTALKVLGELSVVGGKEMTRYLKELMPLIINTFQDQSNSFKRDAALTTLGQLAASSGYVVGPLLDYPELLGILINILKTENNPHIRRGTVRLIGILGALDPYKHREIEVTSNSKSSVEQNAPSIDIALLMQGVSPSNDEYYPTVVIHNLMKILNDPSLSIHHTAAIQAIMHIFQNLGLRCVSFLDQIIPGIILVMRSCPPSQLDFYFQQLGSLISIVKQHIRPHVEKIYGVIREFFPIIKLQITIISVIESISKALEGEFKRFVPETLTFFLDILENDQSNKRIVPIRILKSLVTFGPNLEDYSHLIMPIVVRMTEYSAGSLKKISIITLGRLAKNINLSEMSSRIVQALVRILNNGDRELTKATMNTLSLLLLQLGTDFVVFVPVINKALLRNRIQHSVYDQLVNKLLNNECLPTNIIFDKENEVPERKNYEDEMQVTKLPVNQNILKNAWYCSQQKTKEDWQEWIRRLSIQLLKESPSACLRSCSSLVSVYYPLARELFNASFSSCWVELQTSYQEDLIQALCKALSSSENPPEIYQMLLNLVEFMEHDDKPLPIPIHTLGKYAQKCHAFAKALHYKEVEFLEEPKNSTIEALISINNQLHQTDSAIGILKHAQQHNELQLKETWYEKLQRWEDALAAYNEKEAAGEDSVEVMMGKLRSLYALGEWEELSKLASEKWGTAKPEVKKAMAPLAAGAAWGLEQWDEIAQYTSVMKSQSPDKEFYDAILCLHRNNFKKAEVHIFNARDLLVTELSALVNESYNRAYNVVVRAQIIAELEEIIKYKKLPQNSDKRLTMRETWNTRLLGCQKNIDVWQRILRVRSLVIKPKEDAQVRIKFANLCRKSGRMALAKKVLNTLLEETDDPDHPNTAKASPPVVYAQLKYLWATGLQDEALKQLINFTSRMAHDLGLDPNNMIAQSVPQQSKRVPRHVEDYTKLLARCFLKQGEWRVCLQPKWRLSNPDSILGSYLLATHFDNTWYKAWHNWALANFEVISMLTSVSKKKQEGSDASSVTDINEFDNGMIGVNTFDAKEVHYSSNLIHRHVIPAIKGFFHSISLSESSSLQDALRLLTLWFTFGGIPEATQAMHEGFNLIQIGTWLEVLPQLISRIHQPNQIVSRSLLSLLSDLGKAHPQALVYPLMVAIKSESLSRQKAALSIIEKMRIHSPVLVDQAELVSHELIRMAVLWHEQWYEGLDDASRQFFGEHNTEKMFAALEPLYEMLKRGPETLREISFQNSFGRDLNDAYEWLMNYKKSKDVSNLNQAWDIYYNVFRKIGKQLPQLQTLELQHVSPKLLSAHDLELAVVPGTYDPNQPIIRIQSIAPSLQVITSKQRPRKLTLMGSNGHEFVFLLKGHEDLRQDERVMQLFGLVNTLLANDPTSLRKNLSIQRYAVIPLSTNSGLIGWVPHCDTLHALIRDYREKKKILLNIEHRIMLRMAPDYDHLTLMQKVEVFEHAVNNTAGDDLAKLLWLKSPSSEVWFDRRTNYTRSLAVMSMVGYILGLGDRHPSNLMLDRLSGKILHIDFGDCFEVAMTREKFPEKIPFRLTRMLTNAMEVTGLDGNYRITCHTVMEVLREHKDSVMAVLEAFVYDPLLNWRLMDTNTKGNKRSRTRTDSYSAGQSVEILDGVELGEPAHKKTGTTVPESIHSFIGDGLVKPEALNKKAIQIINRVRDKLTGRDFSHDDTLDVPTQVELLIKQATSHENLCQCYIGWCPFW
T1 sequence (P41318 whole entry partner, the tested form may be a part): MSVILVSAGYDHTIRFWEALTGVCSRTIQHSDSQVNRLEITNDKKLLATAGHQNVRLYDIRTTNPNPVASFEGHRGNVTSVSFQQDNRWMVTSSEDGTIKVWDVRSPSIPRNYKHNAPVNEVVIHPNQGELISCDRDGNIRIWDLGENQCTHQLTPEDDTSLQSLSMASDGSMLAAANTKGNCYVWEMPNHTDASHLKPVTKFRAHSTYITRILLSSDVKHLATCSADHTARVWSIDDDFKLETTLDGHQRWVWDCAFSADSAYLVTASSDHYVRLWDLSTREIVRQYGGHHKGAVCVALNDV
Excerpt: The TOR2-mTOR hybrid plasmid was constructed by replacing the C-terminal region of TOR2 of pML40-TOR2 (Alarcon, et al. (1996). Genes & development 10, 279-288) (encoding for 2080-2474 aa) in frame with a DNA fragment corresponding to C-terminal domain of mTOR (encoding for 2140-2549 aa). To construct mutant TOR2-mTOR plasmids, mTOR C-terminal region was amplified by PCR and co-transformed into yeast with XmaI-digested pML40-TOR2 plasmid that excised the TOR2 C-terminal region. The resultant TOR2-mTOR fusion plasmids are constructed in reading frame by gap-repair in yeast.

[3] = target: T2, tor2-dg cells expressing TOR2 (Saccharomyces cerevisiae, UniProt P32600); assay: Yeast serial-dilution drug sensitivity assay, tor2-dg cells expressing TOR2; format: cell-based, S. cerevisiae; conditions: 10-fold serial dilutions on plates containing drug
T2 construct: expressed in transfected cells; host or cells: S. cerevisiae W303 tor2-dg, plasmid pML40-TOR2
Excerpt: FIGS. 1A-E. Developing a yeast system to assay for mTOR kinase inhibition. (FIG. 1A) Wild type (WT) yeast cells were spread onto YPD plates and tested for sensitivity to structurally diverse mTOR kinase inhibitors by disc halo assay. Rapamycin was used as a positive control. (FIG. 1B) The N-terminus of TOR2 (1-2080 aa) was fused in frame with mTOR kinase domain (2140-2549 aa). The TOR2-mTOR fusion is expressed under the control of TOR2 promoter in a centromeric plasmid. (FIG. 1C) Yeast strain expressing WT TOR2 or TOR2-mTOR fusion was analyzed for expression by immunoblot with an antibody specific for mTOR kinase domain. PGK1 was used as a loading control and extracts from MCF7 breast cells were used as a positive control for mTOR. (FIG. 1D) TOR2-mTOR fusion was expressed in tort-dg and tested for its ability to complement TOR2 function by growth at permissive and restrictive temperatures.
To enhance yeast cell permeability, log phase W303 tort-dg cells were spread evenly on SD-Leu agarose plates. After drying, small sterile filter discs were placed on the surface and 5 μl of indicated mTOR inhibitors or DMSO were applied to each disc with or without adding 5 μl of amphotericin B (10 μM), miconazole (50 μM) or caspofungin (50 μM). Plates were incubated at 37° C. for 3 day. Drug resistance profiles of TOR2-mTOR mutant cells were determined by the spotting assay. […]

[4] = system: H460 lung cancer cells carrying L2185A mutant mTOR alleles; assay: SRB growth assay of H460 cells carrying L2185A mutant mTOR; format: cell-based, human; conditions: various concentrations, 2 days
Protocol: (FIG. 10A) Flag-mTOR(L2185A), when transiently expressed in HEK293T cells, confers drug resistance to mTOR kinase inhibitors. HEK293T cells transiently expressing WT and L2185A mutant Flag-mTOR were treated with various concentrations of INK-128, OSI-027 for 1 hr. The effect on the level of P-S6K, S6K, P-4E-BP1, 4EB-P1, P-AKT and AKT was analyzed by immunoblot. (FIG. 10B) Sequencing verification of genome-engineered SW480 and H460 cells carrying homozygous and heterozygous L2185A mutations in mTOR locus. (FIG. 10C) Independent clones of engineered SW480 cells confer similar drug resistance. Cells were treated with various concentrations of AZD8055 and INK-128 for 2 days. Cell growth was measured by SRB assay. Clones #1, 3 carry heterozygous L2185A mutation. Clones #2, 4 carry homozygous L2185A mutation. […] Cell growth was measured by SRB assay. […] Cell growth was measured by SRB assay. […] The effect on level of P-S6K, P-4E-BP1 and P-AKT was analyzed by immunoblot. […] The growth of H460 cells was measured by SRB assay. […]
Antibodies against tubulin, S6K, phospho-S6K (Thr389), 4E-BP1, phospho-4E-BP1 (Thr37/46), Akt, phospho-Akt (Thr308), and phospho-Akt (Ser473) were purchased from Cell Signaling Technology. […] Cell growth was measured by the sulforhodamine B (SRB) assay as previously described (Vichai, V., and Kirtikara, K. (2006). Nature protocols 1, 1112-1116).

[5] = system: TOR2-mTOR L2185A mutant; assay: Yeast spotting assay for drug resistance, TOR2-mTOR L2185A; format: cell-based, S. cerevisiae; conditions: 37° C., amphotericin B present (except OSI-027)
Excerpt: (§1) FIGS. 4A-C. […] (FIG. 4A) Scheme of a yeast-based screen for drug-resistant mutations in mTOR kinase domain. mTOR kinase domain is amplified by error-prone PCR to generate randomized mutations, which is then recombined in frame into the TOR2-mTOR plasmid by gap-repair in tort-dg cells, and is selected on SC-leucine minus plates. Replica plating is then made onto SC-leucine plates containing DMSO or mTOR kinase inhibitor for selection of drug resistant clones. (FIG. 4B) tor2-dg cells expressing WT or mutant TOR2-mTOR were serially diluted by 10-fold and assayed for sensitivity to different mTOR kinase inhibitors in the presence of amphotericin B. Vector and TOR2 were used as controls. Drug resistant assay was performed at 37° C. in the presence of amphotericin B (except OSI-027). (FIG. 4C) Systematic mutational analysis of L2185 on drug resistance. tort-dg cells expressing WT or mutant TOR2-mTOR carrying all possible mutations at L2185 were serially diluted by 10-fold and tested for sensitivity to different mTOR kinase inhibitors at 37° C.
(§2) To enhance yeast cell permeability, log phase W303 tort-dg cells were spread evenly on SD-Leu agarose plates. After drying, small sterile filter discs were placed on the surface and 5 μl of indicated mTOR inhibitors or DMSO were applied to each disc with or without adding 5 μl of amphotericin B (10 μM), miconazole (50 μM) or caspofungin (50 μM). Plates were incubated at 37° C. for 3 day. Drug resistance profiles of TOR2-mTOR mutant cells were determined by the spotting assay. For this assay, 10-fold serial dilutions of cells were spotted on SD-leu plates in the presence of indicated mTOR inhibitors with or without amphotericin B (200 nM) and incubated at 37° C. for 3 day.

[6] = system: TOR2-mTOR L2185C mutant; assay: Yeast spotting assay for drug resistance, TOR2-mTOR L2185C; format: cell-based, S. cerevisiae; conditions: 37° C., amphotericin B present (except OSI-027)
Excerpt: as §1, §2

[7] = system: Wild type (WT) yeast cells; assay: Disc halo assay of wild type yeast sensitivity to mTOR kinase inhibitors; format: cell-based, S. cerevisiae; conditions: WT yeast on YPD plates; 5 μl on filter disc, BEZ235 5 μM, other mTOR inhibitors 10 μM; 30° C., 3 day
Protocol: For the halo assay, log phase W303 wild type or tor2-dg cells were spread evenly on YPD agarose plates. […] Plates were incubated at 30° C. (wild type) or 37° C. (tor2-dg) for 3 day.

Row | Structure (SMILES) | drug resistance/sensitivity of cell growth, SW480 L2185A vs WT [1] | drug sensitivity of tor2-dg cells expressing TOR2-mTOR [2] | drug sensitivity (growth inhibition) of tor2-dg cells expressing TOR2 [3] | drug resistance/sensitivity of cell growth, H460 L2185A vs WT [4] | drug resistance/sensitivity of TOR2-mTOR L2185A mutant yeast [5] | drug resistance/sensitivity of TOR2-mTOR L2185C mutant yeast [6] | inhibition of yeast growth (disc halo assay) [7]
1 | Cn1c(=O)n(-c2ccc(C(C)(C)C#N)cc2)c2c3cc(-c4cnc5ccccc5c4)ccc3ncc21 [BEZ235] | remains sensitive | highly sensitive | poorly inhibited | remains sensitive |  |  | 
2 | Nc1ccc(-c2ccc3ncc4ccc(=O)n(-c5cccc(C(F)(F)F)c5)c4c3c2)cn1 [Torin2] | remains sensitive |  |  | remains sensitive | remain sensitive | remain sensitive | inhibit yeast growth

Reference: patent publication US10551384B2, “MTOR kinase mutations and methods of use thereof” (RUTGERS, THE STATE UNIVERSITY OF NEW JERSEY, priority 2016, dated 2020)
